Measured values taken from ChEMBL document CHEMBL1149166, “Antimycobacterial agents. 1. Thio analogues of purine” (J Med Chem, 2004).
≈ marks a conversion by molar mass, not a printed value.

Experiments:
[1] = test system: Mycobacterium tuberculosis; experiment: Percent inhibitory activity against Mycobacterium tuberculosis H37Rv Strain at 6.25 ug/mL; type: functional
[2] = test system: Mycobacterium tuberculosis; experiment: Inhibitory activity against growth of Mycobacterium tuberculosis H37Rv Strain; type: functional
[3] = test system: Mycobacterium tuberculosis; experiment: Inhibitory activity against growth of Mycobacterium tuberculosis (Mtb) H37Ra Strain; type: functional
[4] = test system: Mycobacterium tuberculosis; experiment: Percent inhibitory activity against Mycobacterium tuberculosis (Mtb) H37Rv Strain at 12.25 ug/mL; type: functional
[5] = test system: Mycobacterium tuberculosis; experiment: Lowest concentration of compound against Mtb H37Ra strain required to inhibit the growth completely; type: functional
[6] = Selective index is […]; type: functional
[7] = test system: Mycobacterium tuberculosis; experiment: Inhibitory activity against growth of Mycobacterium tuberculosis (Mtb) H37Ra Strain; Activity showed partial growth inhibition representing an estimated 50% or more; type: functional
[8] = test system: Mycobacterium tuberculosis; experiment: Lowest concentration of compound against Mtb H37Ra strain required to inhibit the growth completely; activity range is 2-4; type: functional
[9] = test system: Mycobacterium tuberculosis; experiment: Concentration effecting […] reduction in the viable cell counts of mouse bone marrow macrophage monolayers containing Mtb Erdman after 7 days compared to controls; type: functional, organism-based; conditions: 168 h

Compound | inhibition at 6.25 µg/mL [1] [%] | MIC90 [2] [µg/mL] | MIC [3] [µg/mL] | also measured
CCCCCCCCCCSc1ncnc2c1ncn2CC(=O)Oc1ccccc1 | 0 | > 6.25 | > 12.8 | –
c1ccc2nc(Sc3[nH]cnc4ncnc3-4)ccc2c1 | – | > 12.5 | > 12.8 | inhibition at 12.25 µg/mL [4]: 69%
CCCCCCCCCCSc1[nH]c(Cl)nc2ncnc1-2 | 86 | > 6.25 | > 12.8 | –
CCCCCCCCCCCCSc1ncnc2c1ncn2CC(=O)OCC | 98 | 0.78 (≈ 1.92 µM) | – | MIC [5]: 8 µg/mL (≈ 19.7 µM); SI [6]: > 12.8
Oc1nc(SCc2ccccc2F)c2[nH]cnc2n1 | 50 | > 6.25 | – | MIC [5]: > 8 µg/mL
Oc1nc(SCc2ccc(Cl)cc2)c2[nH]cnc2n1 | 55 | > 6.25 | – | MIC [7]: > 12.8 µg/mL
Oc1nc(SCc2ccccc2Cl)c2[nH]cnc2n1 | 62 | > 6.25 | > 16 | –
Cc1cccc(Sc2[nH]cnc3ncnc2-3)c1 | – | > 12.5 | > 12.8 | inhibition at 12.25 µg/mL [4]: 99%
CCCCCCCCCCSc1ncnc2c1ncn2CC(N)=O | 0 | > 6.25 | 32 (≈ 91.6 µM) | –
CC[C@@H](CO)NCCN[C@@H](CC)CO [ETHAMBUTOL] | – | – | – | MIC [8]: 4 µg/mL (≈ 19.6 µM)
c1ccc2cc(Sc3[nH]cnc4ncnc3-4)ccc2c1 | – | > 12.5 | – | MIC [7]: > 12.8 µg/mL; inhibition at 12.25 µg/mL [4]: 69%
COc1cccc(CSc2[nH]c(O)nc3ncnc2-3)c1 | 59 | > 6.25 | > 16 | –
CCOC(=O)Cn1cnc2c(Sc3cccc(C)c3)ncnc21 | 0 | > 6.25 | – | MIC [7]: > 12.8 µg/mL
O=[N+]([O-])c1ccccc1CSc1nc(O)nc2nc[nH]c12 | 61 | > 6.25 | > 16 | –
CCOC(=O)Cn1cnc2c(SCc3cccc([N+](=O)[O-])c3C)nc(O)nc21 | 0 | > 6.25 | 16 (≈ 39.7 µM) | –
Oc1nc(SCc2ccccc2)c2[nH]cnc2n1 | 94 | > 6.25 | > 12.8 | –
CCOC(=O)Cn1cnc2c(Sc3ccc(Cl)cc3)ncnc21 | 99 | > 6.25 | 32 (≈ 91.7 µM) | –

Compound | inhibition at 6.25 µg/mL [1] [%] | MIC90 [2] [µg/mL] | MIC [3] [µg/mL] | also measured
Oc1nc(SCc2ccc(F)cc2C(F)(F)F)c2[nH]cnc2n1 | 50 | – | > 16 | –
Cc1ccc(Sc2[nH]cnc3ncnc2-3)cc1 | – | > 12.5 | > 12.8 | inhibition at 12.25 µg/mL [4]: 65%
CCCCCCCCCCSc1ncnc2c1ncn2CC(=O)OC(C)(C)C | 99 | 3.13 (≈ 7.7 µM) | 16 (≈ 39.4 µM) | SI [6]: > 3.19
CCCCCCCCCCSc1ncnc2c1ncn2CC(=O)OCc1ccccc1 | 0 | > 6.25 | > 12.8 | –
CCCCCCCCCCCSc1[nH]cnc2ncnc1-2 | 98 | 3.13 (≈ 10.2 µM) | > 12.8 | EC50 [9]: 2.54 µg/mL (≈ 8.29 µM)
CCOC(=O)Cn1cnc2c(SCc3cc(Cl)ccc3F)nc(O)nc21 | 17 | > 6.25 | – | MIC [5]: 4 µg/mL (≈ 10.1 µM)
Clc1nc(Sc2ncccn2)c2[nH]cnc2n1 | 53 | > 6.25 | > 12.8 | –
CCOC(=O)Cn1cnc2c(SCc3ccccc3F)nc(O)nc21 | 22 | > 6.25 | – | MIC [5]: 4 µg/mL (≈ 11 µM)
CCOC(=O)Cn1cnc2c(Sc3ccc4ccccc4c3)ncnc21 | 100 | > 6.25 | – | MIC [7]: > 12.8 µg/mL
CCOC(=O)Cn1cnc2c(Sc3ccc(C)cc3)ncnc21 | 99 | > 6.25 | > 12.8 | –
Oc1nc(SCc2ccc(F)cc2)c2[nH]cnc2n1 | 52 | > 6.25 | – | MIC [7]: > 12.8 µg/mL
c1ccc(CSc2ncnc3[nH]cnc23)cc1 | – | > 12.5 | > 12.8 | inhibition at 12.25 µg/mL [4]: 52%
Clc1ccc(Sc2[nH]cnc3ncnc2-3)cc1 | – | > 12.5 | > 12.8 | inhibition at 12.25 µg/mL [4]: 78%
CCCCCCCCCCSc1ncnc2c1ncn2CC(=O)OCC | 100 | 1.56 (≈ 4.12 µM) | – | MIC [7]: > 12.8 µg/mL; SI [6]: > 40
Clc1nc(Sc2cccc3ccccc23)c2[nH]cnc2n1 | 56 | > 6.25 | > 12.8 | –
CCOC(=O)Cn1cnc2c(SCc3ccccc3)nc(O)nc21 | 25 | > 6.25 | – | MIC [5]: 4 µg/mL (≈ 11.6 µM)
Cc1ccccc1Sc1[nH]c(Cl)nc2ncnc1-2 | 72 | > 6.25 | > 12.8 | –
